Source: patent publication US11311501B2, “Mitoriboscins: mitochondrial-based therapeutics targeting cancer cells, bacteria, and pathogenic yeast” (LUNELLA BIOTECH, INC., priority 2017, dated 2022)
Values after ≈ are worked out from the molar mass of the structure shown.

Columns and labels:
[1] = tested on: Staph. aureus ATCC 25923 (MSSA); assay: MIC by broth dilution method; assay type: cell-based; conditions: for MIC50 / MIC99: Staphylococcus aureus
Method: (§1) The minimal inhibitory concentration (MIC) of the antibacterial compounds may be determined using the broth dilution method, according to CLSI guidelines. Test compound solutions (or antibiotic solutions used as positive controls) were diluted, serially, with MHB medium. Then, the suspensions of the microorganisms, prepared from overnight cultures of bacteria in the MHB medium, at a concentration of 10^6 CFU/ml, were added to each dilution in a 1:1 ratio. McFarland standards were used as a reference to adjust the turbidity of microorganism suspensions. Growth (or lack thereof) of the microorganisms was determined after incubation for 24 hours at 37° C. by turbidimetry (wavelength of 600 nm). […] The susceptibility test by measurement of MIC was performed in triplicate and repeated three times independently.

E. coli ATCC 25922 = assay: MIC by broth dilution method; assay type: cell-based; conditions: E. coli ATCC 25922, 24 hours at 37° C.; for MIC50 / MIC99: Escherichia coli, ATCC25922
Method: as §1

[2] = tested on: Strept. pyogenes ATCC 19615; assay: MIC by broth dilution method; assay type: cell-based; conditions: for MIC50 / MIC99: Streptococcus pyogenes, ATCC19615
Method: as §1

K. pneumoniae ATCC 13883 = assay: MIC by broth dilution method; assay type: cell-based; conditions: for MIC50 / MIC99: Klebsiella pneumoniae, ATCC13883
Method: as §1

P. auriginosa ATCC 27853 = assay: MIC by broth dilution method; assay type: cell-based, P. aeruginosa; conditions: for MIC50 / MIC99: Pseudomonas aeruginosa, ATCC27853
Method: as §1

MCF7 cells [3] = assay: Seahorse XF96 metabolic flux analysis (OCR/ECAR); assay type: cell-based, human; conditions: for rank order potency to reduce maximal respiration and ATP production: top 10 hits, FIG. 10; for effect on glycolysis: ECAR; for inhibition of mitochondrial oxygen-consumption: FIGS. 7, 8 and 9
Description: The present approach further involves methods of functional validation at step S105, during which a compound's function as a mitochondrial inhibitor may be confirmed. A number of methods may be used for functional validation, including, for example, metabolic flux analysis, mammosphere assays, viability assays, and antibiotic (anti-bacterial and/or anti-fungal) activity. For example, the inventors determined extracellular acidification rates (ECAR) and real-time oxygen consumption rates (OCR) for MCF7 cells using the Seahorse Extracellular Flux (XF96) analyzer (Seahorse Bioscience, MA, USA). MCF7 cells were maintained in DMEM supplemented with 10% FBS (fetal bovine serum), 2 mM GlutaMAX, and 1% Pen-Strep. 5,000 cells per well were seeded into XF96-well cell culture plates, and incubated overnight at 37° C. in a 5% CO2 humidified atmosphere. After 24 hours, cells were treated with selected compounds showing ATP-depletion without prominent cytotoxicity at various concentrations (or vehicle alone). After 72 hours of treatment, cells were washed in pre-warmed XF assay media (for OCR measurement, XF assay media was supplemented with 10 mM glucose, 1 mM Pyruvate, 2 mM L-glutamine and adjusted at pH 7.4). Cells were maintained in 175 μL/well of XF assay media at 37° C. in a non-CO2 incubator for 1 hour. During incubation, 25 μL of 80 mM glucose, 9 μM oligomycin, 1M 2-deoxyglucose (for ECAR measurement) and 25 μL of 10 μM oligomycin, 9 μM FCCP, 10 μM rotenone, 10 μM antimycin A (for OCR measurement) in XF assay media was loaded into the injection ports of the XFe-96 sensor cartridge. During the experiment, the instrument injected these inhibitors into the wells at a given time point, while ECAR/OCR was measured continuously. ECAR and OCR measurements were normalized by protein content (using the Sulphorhodamine B assay). Data sets were analyzed by XFe-96 software, using one-way ANOVA and Student's t-test calculations. All experiments were performed in triplicate, and results validated the mitochondrial inhibition effects of mitoriboscin compounds described herein. It should be appreciated that numerous methods are known for functional validation, and that persons of skill in the art may select one or more depending on the validation needs (e.g., other assays that measure or approximate mitochondrial function). The present approach involves methods of function validation of mitoriboscin compounds. For example, the inventors assessed functional validation of three candidates using the Seahorse Analyzer, which quantitatively measures oxygen consumption rate (OCR) and extracellular acidification rate (ECAR). OCR is a surrogate marker for OXPHOS and ECAR is a surrogate marker for glycolysis and L-lactate production.

C. albicans = assay: MIC by broth dilution method; assay type: cell-based; conditions: C. albicans ATCC 13883
Method: as §1, with “nm). MIC 50 and MIC 99 are defined as the minimum inhibitory concentration of the compound required for 50% and 99% inhibition of bacterial growth.” for “nm).”, “independently. Statistical significance was determined using the Student's t-test and values of less than 0.05 were considered significant.” for “independently.”
(§2) In order to determine the minimal inhibitory concentration (MIC) for 24/F9, 24/D4 and 23/G4, the broth dilution method may be performed.

MRSA ATCC 43300 = assay: MIC by broth dilution method; assay type: cell-based, Methicillin-resistant Staphylococcus aureus; conditions: for sensitivity of MRSA: summary of Table 4
Method: as §1, with “nm). MIC 50 and MIC 99 are defined as the minimum inhibitory concentration of the compound required for 50% and 99% inhibition of bacterial growth.” for “nm).”, “independently. Statistical significance was determined using the Student's t-test and values of less than 0.05 were considered significant.” for “independently.”
as §2

MCF7 cells [4] = assay: Mammosphere formation assay; assay type: cell-based, human; conditions: 5 μM, FIG. 5
Description: The present approach involves methods of testing compounds, and in particular mitoriboscins, for anti-cancer properties. As discussed above, vHTS and computational chemistry may be used to identify candidate mitochondrial inhibitors. Those candidates may be tested for specific anti-cancer properties. For examples, the inventors compared seven candidate compounds in parallel for their ability to inhibit mammosphere formation in MCF7 cells. […] For example, 23/G4 (Group 1) reduced mammosphere formation by 50% at this concentration. Similarly, 24/F9 (Group 2) and 24/D4 (Group 3), both reduced mammosphere formation by ˜90%.

[5] = Staph. aureus ATCC 25923 (Table 3)
[6] = Staphylococcus aureus, MRSA ATCC 43300

| SMILES | MIC50 [1, 5] [µg/mL] | MIC99 [1, 5] [µg/mL] | MIC50 (E. coli ATCC 25922) [µg/mL] | MIC99 (E. coli ATCC 25922) [µg/mL] | MIC50 [2] [µg/mL] | MIC99 [2] [µg/mL] | MIC50 (K. pneumoniae ATCC 13883) [µg/mL] | MIC99 (K. pneumoniae ATCC 13883) [µg/mL] | MIC50 (P. auriginosa ATCC 27853) [µg/mL] | MIC99 (P. auriginosa ATCC 27853) [µg/mL] | rank order potency to reduce maximal respiration and ATP production (MCF7 cells [3]) | MIC 50% ([1]; MSSA ATCC 25923 (Table 4)) [µg/mL] | MIC 99% ([1]; MSSA ATCC 25923 (Table 4)) [µg/mL] | also measured |
| --- | --- | --- | --- | --- | --- | --- | --- | --- | --- | --- | --- | --- | --- | --- |
| CC(=O)NC[C@H]1CN(c2ccc(N3CCOCC3)c(F)c2)C(=O)O1 [LINEZOLID, reference compound] | 1 (≈ 2.96 µM) | 2 (≈ 5.93 µM) | 128 (≈ 379 µM) | > 128 | 1 (≈ 2.96 µM) | 2 (≈ 5.93 µM) | 128 (≈ 379 µM) | 256 (≈ 759 µM) | 64 (≈ 190 µM) | 256 (≈ 759 µM) |  |  |  |  |
| CN(C)C1CC2(CCN(Cc3cc(Cl)ccc3OCc3ccccc3)CC2)OCC1(C)O (centres unmarked) [24/H9] |  |  |  |  |  |  |  |  |  |  | top 6 |  |  |  |
| OC1C(NCc2ccccc2)CCCC1Oc1ccccc1Oc1cccc(F)c1 (centres unmarked) [23/E9] |  |  |  |  |  |  |  |  |  |  | top 6 |  |  |  |
| Clc1ccc(COC(Cn2ccnc2)c2ccc(Cl)cc2Cl)c(Cl)c1 (centres unmarked) [MICONAZOLE, reference compound] |  |  |  |  |  |  |  |  |  |  |  |  |  | MIC50 (C. albicans; Candida albicans, ATCC13883): 0.5 µg/mL (≈ 1.2 µM); MIC99 (C. albicans; Candida albicans, ATCC13883): 1 µg/mL (≈ 2.4 µM) |
| CN(C)Cc1cccc(C2CCCN2Cc2ccccc2OCc2cccc(F)c2)n1 (centres unmarked) [25/B3] |  |  |  |  |  |  |  |  |  |  | top 6 |  |  |  |
| CCCc1ccc(OCc2ccccc2)c(CN2CCC3(CC2)CC(N(C)C)C(C)(O)CO3)c1 (centres unmarked) [24/D4] |  |  |  |  |  |  |  |  |  |  |  | 16 (≈ 34.3 µM) | 32 (≈ 68.6 µM) | MIC 50% [1, 5]: 16 µg/mL (≈ 34.3 µM); MIC 99% [1, 5]: 32 µg/mL (≈ 68.6 µM); MIC 50% (E. coli ATCC 25922): 16 µg/mL (≈ 34.3 µM); MIC 99% (E. coli ATCC 25922): 32 µg/mL (≈ 68.6 µM); MIC 50% [2]: 16 µg/mL (≈ 34.3 µM); MIC 99% [2]: 32 µg/mL (≈ 68.6 µM); MIC 50% (K. pneumoniae ATCC 13883): 16 µg/mL (≈ 34.3 µM); MIC 99% (K. pneumoniae ATCC 13883): 32 µg/mL (≈ 68.6 µM); MIC 50% (MRSA ATCC 43300; MRSA ATCC 43300): 16 µg/mL (≈ 34.3 µM); MIC 99% (MRSA ATCC 43300; MRSA ATCC 43300): >32 µg/mL; sensitivity of MRSA (MRSA ATCC 43300): sensitive; effect on glycolysis (MCF7 cells [3]): suppressed glycolysis; inhibition of mitochondrial oxygen-consumption (MCF7 cells [3]): dose-dependently inhibited; reduction of mammosphere formation (MCF7 cells [4]): ~90%; MIC 99% (C. albicans): >64 µg/mL; MIC 50% (P. auriginosa ATCC 27853): 16 µg/mL (≈ 34.3 µM); MIC 99% (P. auriginosa ATCC 27853): 32 µg/mL (≈ 68.6 µM) |
| CN1CCN(C2CCN(Cc3cc(C(C)(C)C)ccc3OCc3ccccc3)CCC2O)CC1 (centres unmarked) [24/F9] |  |  |  |  |  |  |  |  |  |  | top 6 | 32 (≈ 68.7 µM) | 64 (≈ 137 µM) | MIC 50% [1, 5]: 32 µg/mL (≈ 68.7 µM); MIC 99% [1, 5]: 64 µg/mL (≈ 137 µM); MIC 50% (E. coli ATCC 25922): 32 µg/mL (≈ 68.7 µM); MIC 99% (E. coli ATCC 25922): 64 µg/mL (≈ 137 µM); MIC 50% [2]: 32 µg/mL (≈ 68.7 µM); MIC 99% [2]: 64 µg/mL (≈ 137 µM); MIC 50% (K. pneumoniae ATCC 13883): 32 µg/mL (≈ 68.7 µM); MIC 99% (K. pneumoniae ATCC 13883): 64 µg/mL (≈ 137 µM); MIC 50% (MRSA ATCC 43300; MRSA ATCC 43300): 64 µg/mL (≈ 137 µM); MIC 99% (MRSA ATCC 43300; MRSA ATCC 43300): >64 µg/mL; effect on glycolysis (MCF7 cells [3]): suppressed glycolysis; inhibition of mitochondrial oxygen-consumption (MCF7 cells [3]): dose-dependently inhibited; reduction of mammosphere formation (MCF7 cells [4]): ~90%; MIC 99% (C. albicans): >64 µg/mL; MIC 50% (P. auriginosa ATCC 27853): >32 µg/mL; MIC 99% (P. auriginosa ATCC 27853): >64 µg/mL |
| C[C@H]1c2cccc(O)c2C(=O)C2=C(O)[C@]3(O)C(=O)C(C(N)=O)=C(O)[C@@H](N(C)C)[C@@H]3[C@@H](O)[C@@H]21 [DOXYCYCLINE, reference compound] | 0.5 (≈ 1.13 µM) | 1 (≈ 2.25 µM) | 0.5 (≈ 1.13 µM) | 2 (≈ 4.5 µM) | 0.5 (≈ 1.13 µM) | 1 (≈ 2.25 µM) | 2 (≈ 4.5 µM) | 4 (≈ 9 µM) | 1 (≈ 2.25 µM) | 2 (≈ 4.5 µM) |  |  |  | MIC99 (C. albicans; Candida albicans, ATCC13883): > 64 µg/mL |
| CN1CCCN(C2CCN(Cc3cc(Cl)ccc3OCc3ccccc3)CCC2O)CC1 (centres unmarked) [24/H6] |  |  |  |  |  |  |  |  |  |  | top 6 |  |  |  |
| CC1(C)S[C@@H]2[C@H](NC(=O)[C@H](N)c3ccc(O)cc3)C(=O)N2[C@H]1C(=O)O [AMOXICILLIN, reference compound] | 4 (≈ 10.9 µM) | 8 (≈ 21.9 µM) | 16 (≈ 43.8 µM) | > 32 | 4 (≈ 10.9 µM) | 8 (≈ 21.9 µM) | 32 (≈ 87.6 µM) | > 64 | 128 (≈ 350 µM) | 256 (≈ 701 µM) |  | 4 (≈ 10.9 µM) | 8 (≈ 21.9 µM) | sensitivity of MRSA (MRSA ATCC 43300): resistant; MIC50 (MRSA ATCC 43300; [6]): > 64 µg/mL; MIC99 (MRSA ATCC 43300; [6]): > 64 µg/mL |
